One data set concerns T-tropic HIV. Kind of data set: Phenoscreen HIV cellular entry inhibition assay (Monogram Biosciences). The settings on record: Human immunodeficiency virus 1, read-out: IC50 value for viral entry inhibition.
For data set [1] the following is noted: cited from earlier work.

As to `CCNCc1ccc(S(=O)(=O)N(Cc2ccccc2)Cc2ccccc2)cc1` [DZ, N,N-dibenzyl-4-((ethylamino)methyl)benzenesulfonamide], the IC50 in the data set on T-tropic HIV is at most 10 µM.

For the compound `c1cc(CN2CCCNCCNCCCNCC2)ccc1CN1CCCNCCNCCCNCC1` [AMD3100], the “side effect in clinical study” value in data set [1] is listed as “cardiac-related side effect”.

Take `O=S(=O)(c1ccc(CNCc2ccccn2)cc1)N(Cc1ccccc1)Cc1nc2ccccc2[nH]1` [DH, N-((1H-benzo[d]imidazol-2-yl)methyl)-N-benzyl-4-((pyridin-2-ylmethylamino)methyl)benzenesulfonamide]: the IC50 in the data set with T-tropic HIV is at most 10 µM.

As to `O=S(=O)(NC1CCCc2ccccc21)c1ccc(CNCc2ccccn2)cc1` (centres unmarked) [DE, 4-((pyridin-2-ylmethylamino)methyl)-N-(1,2,3,4-tetrahydronaphthalen-1-yl)benzenesulfonamide], the half-inhibitory concentration (IC50) with T-tropic HIV was at most 10 µM.

`O=S(=O)(c1ccc(CNCCCN2CCOCC2)cc1)N(Cc1ccccc1)Cc1ccccc1` [DX, N,N-dibenzyl-4-((3-morpholinopropylamino)methyl)benzenesulfonamide]: the IC50 in the data set with T-tropic HIV was at most 10 µM.

These data come from US20080261978A1, “Chemokine receptor modulators” (priority 2007, published 2008).
